The text below walks through data of patent US20260176300A1, “N-ARYLPYRAZOLE NOD2 AGONISTS AS PROMOTERS OF IMMUNE CHECKPOINT INHIBITOR THERAPY” (THE SCRIPPS RESEARCH INSTITUTE, priority 2022, published 2026).

T1 sequence (Q9HC29 whole entry): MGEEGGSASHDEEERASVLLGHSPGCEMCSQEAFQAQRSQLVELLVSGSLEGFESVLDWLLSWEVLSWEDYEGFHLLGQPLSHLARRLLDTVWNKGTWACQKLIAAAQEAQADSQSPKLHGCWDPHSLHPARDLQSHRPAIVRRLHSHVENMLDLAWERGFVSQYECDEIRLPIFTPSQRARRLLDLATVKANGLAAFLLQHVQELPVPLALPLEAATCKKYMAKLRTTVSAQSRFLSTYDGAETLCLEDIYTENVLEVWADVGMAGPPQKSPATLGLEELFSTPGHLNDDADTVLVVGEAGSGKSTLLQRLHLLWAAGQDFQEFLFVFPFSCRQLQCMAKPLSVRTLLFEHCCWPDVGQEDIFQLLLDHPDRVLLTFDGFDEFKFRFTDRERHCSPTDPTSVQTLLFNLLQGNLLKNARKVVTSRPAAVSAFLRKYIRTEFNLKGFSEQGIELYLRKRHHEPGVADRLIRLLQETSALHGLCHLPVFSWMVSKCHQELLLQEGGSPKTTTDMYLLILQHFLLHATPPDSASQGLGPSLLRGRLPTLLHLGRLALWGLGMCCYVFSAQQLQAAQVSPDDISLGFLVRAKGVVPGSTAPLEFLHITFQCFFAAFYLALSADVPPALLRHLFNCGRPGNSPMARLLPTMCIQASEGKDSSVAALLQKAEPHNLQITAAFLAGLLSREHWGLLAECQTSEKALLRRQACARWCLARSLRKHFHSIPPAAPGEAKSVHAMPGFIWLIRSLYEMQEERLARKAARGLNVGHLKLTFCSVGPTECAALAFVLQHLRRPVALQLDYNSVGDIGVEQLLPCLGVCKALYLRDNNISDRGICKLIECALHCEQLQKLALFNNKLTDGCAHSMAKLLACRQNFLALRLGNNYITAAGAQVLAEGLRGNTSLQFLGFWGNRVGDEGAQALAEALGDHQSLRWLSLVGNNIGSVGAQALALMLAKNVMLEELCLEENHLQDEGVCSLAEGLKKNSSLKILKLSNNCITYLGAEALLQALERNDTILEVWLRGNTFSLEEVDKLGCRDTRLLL

One test has as its target T1, NOD2 (Homo sapiens, UniProt Q9HC29).
T1 construct: host or cells: HEK-293T-derived HEK-Blue NF-kB/SEAP reporter cells
Put plainly: NOD2-HEK-Blue NF-κB reporter cell activation assay (NOD2-expressing HEK-293T cells). Conditions: FIG. 3F. It counts as cell-based. The source says: FIG. 1(A-F). Virtual screening for small molecule NOD2 agonists. A, Docked structure of muramyl dipeptide (MDP) in the leucine-rich repeat (LRR) domain of rabbit NOD2 (pdb 5IRM). […] B, Results of virtual docking approach with reported chemical structures related to MDP. C, Workflow of virtual screening in which a library was generated using carboxylic acids appended to the L-Val-D-Glu dipeptide and then docked to the NOD2 LRR domain. D, Desmuramyl MDP (dMDP) structures resulting from the virtual screen that were synthesized for further screening. Chemicals shown as a pure enantiomer were synthesized as a racemic mixture. E, Activation of NOD2-expressing HEK-293T cells treated for 16 h with 10 µM of the indicated compound using a colorimetric assay. F, Dose-dependent activation of NOD2-expressing HEK-293T cells using the indicated compounds. Numbers in parentheses represent calculated negative log of the half maximal effective concentration (pEC50) values. NOD activation assays were analyzed using a one-way ANOVA with Dunnett's multiple comparisons test compared to the DMSO control. pEC50 values were derived by a three-parameter dose-response nonlinear regression. ****P<0.0001.
FIG. 2(A-G). Structure-activity relationship studies of 3,5-dimethyl-N-arylpyrazole NOD2 agonists. A, Structures of 3,5-dimethyl-N-arylpyrazole structures synthesized for SAR studies. B-F, Dose-dependent activation of NOD2-expressing HEK-293T cells using the indicated compounds grouped by similar structural perturbations. Numbers in parentheses represent calculated pEC50 values. G, Graph of calculated pEC50 values vs. calculated partition coefficient (clogP). Dotted lines show equivalent lipophilic ligand efficiency (LLE) values. Red arrow indicates optimization of the TT007 scaffold to TT030. pEC50 values were derived by a three-parameter dose-response nonlinear regression.
Cell culture. The following cell lines were used and sourced as follows: HEK-Blue NOD2 (InvivoGen, hkb-hnod2), HEK-Blue NOD1 (InvivoGen, hkb-nod1), HEK-Blue Null2 (hkb-null2), and B16-F10 (ATCC CRL-6475). All cell lines were cultured at 37° C. in 5% CO2 in DMEM (ThermoFisher, 11995065) supplemented with 10% fetal bovine serum (FBS), 100 U mL-1 penicillin, and 100 μg mL-1 streptomycin. Cells were maintained at no greater than 70% confluency and subcultured using TrypLE Express. Cell lines were routinely cultured without antibiotics to ensure no bacterial infection and tested for mycoplasma using a Universal Mycoplasma Detection Kit (ATCC 30-1012K). Primary human peripheral mononuclear blood cells (PBMCs) were cultured at 37° C. in 5% CO2 in RPMI 1640 (ThermoFisher, 61870143) supplemented with 10% FBS. All experimental work using human samples was reviewed and approved by the Scripps Research Institutional Review Board (Protocol IRB-21-7816NOD2).
Reporter cell line activation assay. Approximately 24 h before the assay, culture medium for each of the HEK-Blue reporter cell lines was replaced with a 1:1 mixture of DMEM supplemented with 10% FBS and OptiMEM. On the day of the assay, single cell suspensions (150,000 cells/mL) were produced in HEK-Blue detection medium (InvivoGen, hb-det2). Cells were aliquoted at 200 μL per well of a 96-well plate containing 0.2 μL of a 1000× stock of each test compound in DMSO. Cells were then incubated at 37° C. in 5% CO2 for 8-10 h. To measure activity, wells were then gently pipetted up and down to mix the conditioned medium, and absorbance from the colorimetric product of the secreted alkaline phosphatase was measured at 630 nm. In some assays, cells were stimulated for 16 h with compounds as described above in complete DMEM. Then, 20 μL of the conditioned medium was mixed with 180 μL QUANTI-Blue solution (InvivoGen, rep-qbs) and incubated for 2-4 h at 37° C. Activity was then measured by absorbance as described above.
Regarding `CCOC(=O)CC[C@H](NC(=O)[C@H](NC(=O)c1c(C)nn(-c2cc[nH]c(=O)c2)c1C)C(C)C)C(=O)OCC` [TT030-ent, Diethyl (3,5-dimethyl-1-(2-oxo-1,2-dihydropyridin-4-yl)-1H-pyrazole-4-carbonyl)-D-valyl-L-glutamate], the “NOD2 activity in the HEK-Blue in vitro assay” value is “NOD2-inactive”.

Staying with this test, now noted: calculated, three-parameter dose-response nonlinear regression; read-out: pEC50 (μM), dose-dependent activation of NOD2-expressing HEK-293T cells (converted).
Take `CCOC(=O)CC[C@@H](NC(=O)[C@@H](NC(=O)c1c(C)nn(-c2ccc(N)nc2)c1C)C(C)C)C(=O)OCC` [TT026, Diethyl (1-(6-aminopyridin-3-yl)-3,5-dimethyl-1H-pyrazole-4-carbonyl)-L-valyl-D-glutamate]: the EC50 is 0.501 µM.
As for `CCOC(=O)CC[C@@H](NC(=O)[C@@H](NC(=O)c1c(C)nn(-c2ccc(NC(=O)OC(C)(C)C)nc2)c1C)C(C)C)C(=O)OCC` [TT027, Diethyl (1-(6-((tert-butoxycarbonyl)amino)pyridin-3-yl)-3,5-dimethyl-1H-pyrazole-4-carbonyl)-L-valyl-D-glutamate], the EC50 was 0.158 µM.
The same measure, in the same setting: the result for `CCOC(=O)CC[C@@H](NC(=O)[C@@H](NC(=O)c1c(C)nn(-c2ccc3[nH]ccc3c2)c1C)C(C)C)C(=O)OCC` [TT028, Diethyl (1-(1H-indol-5-yl)-3,5-dimethyl-1H-pyrazole-4-carbonyl)-L-valyl-D-glutamate] reads 0.251 µM.
Regarding `CCOC(=O)CC[C@@H](NC(=O)[C@@H](NC(=O)c1c(C)nn(-c2cnc3[nH]ccc3c2)c1C)C(C)C)C(=O)OCC` [TT029, Diethyl (3,5-dimethyl-1-(1H-pyrrolo[2,3-b]pyridin-5-yl)-1H-pyrazole-4-carbonyl)-L-valyl-D-glutamate], the EC50 was 0.398 µM.
Same read-out and setting: under `CCOC(=O)CC[C@@H](NC(=O)[C@@H](NC(=O)c1c(C)nn(-c2ccncc2)c1C)C(C)C)C(=O)OCC` [TT031, Diethyl (3,5-dimethyl-1-(pyridin-4-yl)-1H-pyrazole-4-carbonyl)-L-valyl-D-glutamate] stands 3.16 µM.
On the same count and under the same terms, the result for `CCOC(=O)CC[C@@H](NC(=O)[C@@H](NC(=O)c1c(C)nn(-c2ccccn2)c1C)C(C)C)C(=O)OCC` [TT032, Diethyl (3,5-dimethyl-1-(pyridin-2-yl)-1H-pyrazole-4-carbonyl)-L-valyl-D-glutamate] reads 1.58 µM; that for `CCOC(=O)CC[C@@H](NC(=O)[C@@H](NC(=O)c1c(C)nn(-c2cccnc2)c1C)C(C)C)C(=O)OCC` [TT033, Diethyl (3,5-dimethyl-1-(pyridin-3-yl)-1H-pyrazole-4-carbonyl)-L-valyl-D-glutamate], 2.51 µM.
Same read-out and setting: the result for `CCOC(=O)CC[C@@H](NC(=O)[C@@H](NC(=O)c1c(C)nn(-c2cncnc2)c1C)C(C)C)C(=O)OCC` [TT034, Diethyl (3,5-dimethyl-1-(pyrimidin-5-yl)-1H-pyrazole-4-carbonyl)-L-valyl-D-glutamate] reads 2.51 µM.
Regarding `CCOC(=O)CC[C@@H](NC(=O)[C@@H](NC(=O)c1c(C)nn(-c2ccccc2OC)c1C)C(C)C)C(=O)OCC` [TT035, Diethyl (1-(2-methoxyphenyl)-3,5-dimethyl-1H-pyrazole-4-carbonyl)-L-valyl-D-glutamate], the EC50 is 1.58 µM.
Still for that read-out and setting: the result for `CCOC(=O)CC[C@@H](NC(=O)[C@@H](NC(=O)c1c(C)nn(-c2cccc(OC)c2)c1C)C(C)C)C(=O)OCC` [TT036, Diethyl (1-(3-methoxyphenyl)-3,5-dimethyl-1H-pyrazole-4-carbonyl)-L-valyl-D-glutamate] reads 2.51 µM.
`CCOC(=O)CC[C@@H](NC(=O)[C@@H](NC(=O)c1cnn(-c2cccnc2)c1)C(C)C)C(=O)OCC` [TT037, diethyl (1-(pyridin-3-yl)-1H-pyrazole-4-carbonyl)-L-valyl-D-glutamate]: the EC50 is 5.01 µM.
On the same count and under the same terms, under `C#CCCC1(CC(=O)N[C@H](C(=O)N[C@H](CCC(=O)OCC)C(=O)OCC)C(C)C)N=N1` [x-alk-VE] stands 1.58 µM.

A further test deals with B16-F10 subcutaneous tumors. Put plainly: B16-F10 tumor growth assay with anti-PD-L1 co-treatment. It counts as in vivo, mice. Conditions: wild-type C57BL/6 mice, 100 μg α-PD-L1 and 100 μg compound i.p. every other day. How it is done:
FIG. 3(A-H). NOD2 agonist TT030 activates cytokine production in vitro and improves immune checkpoint inhibitor treatment of tumor growth in vivo. A-D, Measurements of secreted cytokine levels from human peripheral mononuclear blood cells (PMBCs) treated with the indicated compounds for 24 h without or with lipopolysaccharide (LPS). E, Structures of TT030 and its enantiomer (TT030-ent). F, Activation of NOD1- and NOD2-expressing HEK-293T cells with the indicated compounds. C12-iE-DAP is a lipophilic version of the NOD1 agonist, iE-DAP. G, Growth profiles of B16-F10 subcutaneous tumors in wild-type C57BL/6 mice treated with 100 μg α-PD-L1 and 100 μg of the indicated compounds every other day starting at Day 7. H, Growth profiles of B16-F10 subcutaneous tumors in wild-type or Nod2^−/− C57BL/6 mice treated with 100 μg α-PD-L1 and 100 μg TT030 every other day starting at Day 7. Cytokine secretion assays and NOD activation assays were analyzed using a one-way ANOVA with Dunnett's multiple comparisons test compared to the DMSO control. Longitudinal tumor growth assays were analyzed using linear mixed-effects model analysis on the log transformed data. ns=not significant, *P<0.05, **P<0.01, ***P<0.001, ****P<0.0001.
Animals. Specific pathogen-free, eight-week old male C57BL/6J (B6, 000664) and B6.129S1—Nod2^tm1Flv/J (Nod2^−/−, 005763 from Flavell Lab, Yale School of Medicine) were obtained from The Jackson Laboratory. Animals were housed in autoclaved caging with SaniChip bedding and enrichment for nest building on a 12-hour light/dark cycle. Animals were provided gamma-irradiated chow (LabDiet, 5053) and sterile drinking water ad libitum. Animal care and experiments were conducted in accordance with NIH guidelines and approved by the Institutional Animal Care and Use Committee at Scripps Research (Protocol AUP-21-095).
Tumor growth assay. B16-F10 cells were subcultured on the day prior to harvesting for tumor inoculation. On the day of injection, cells were harvested using TrypLE Express, washed and resuspended in cold PBS, and counted with a hemocytometer. Cells were then resuspended at 2×10^6 cells mL^−1 in PBS and mixed 1:1 with Matrigel matrix (Corning; growth factor reduced, 356231). Cell suspensions were kept on ice prior to injection. Animals were anesthetized using 3% isoflurane, and their right flank was shaved with hair clippers. Animals were then subcutaneously injected with 100 μL of the cell suspension on their mid-right flank (1×10^5 cells per injection). Once tumors were established at roughly 25-100 mm^3, tumor volume was measured every other day. Digital calipers were used to measure the length and width of each tumor, and tumor volume was calculated as length×[…], where width was the smaller of the two measurements. […]
Turning to `CCOC(=O)CC[C@H](NC(=O)[C@H](NC(=O)c1c(C)nn(-c2cc[nH]c(=O)c2)c1C)C(C)C)C(=O)OCC` [TT030-ent, Diethyl (3,5-dimethyl-1-(2-oxo-1,2-dihydropyridin-4-yl)-1H-pyrazole-4-carbonyl)-D-valyl-L-glutamate], the “B16 tumor growth over time” value is reported as “not”.
